Tests used:
Format in all cases: cell-based
[1] = system: HeLa cells; experiment: 72 h Cell Titer Glo viability, HeLa; set-up: AUC: unit not given beside the values
Description: (§1) To measure cancer cell death in response to 6-(4-(diethylamino)-3-nitrophenyl)-5-methyl-4,5-dihydropyridazin-3(2H)-one (DN/DP) treatment, cells were plated in 384w assay plates at the following cell density per well: 500 cells of HeLa (DMEM), A2058 (DMEM), HMCB (EMEM), IGR37 (DMEM), NCIH1734 (RPMI), 750 cells of CAL51 (DMEM), COL0741 (RPMI), DKMG (RPMI), GB1 (EMEM), HEL (RPMI), HEL9217 (RPMI), JHUEM1 (DMEM+F12), L3.3 (RPMI) and TE4 (RPMI), HCC15 (RPMI), UACC257 (RPMI), 1000 cells for HUT78 (IMEM), NCIH1563 (RPMI), NCIH2122 (RPMI), NCIH2172 (RPMI), RVH421 (RPMI) and SKMEL3 (McCoy's 5A), 1500 cells for C32 (EMEM), HS578T (DMEM) and JHOM1 (DMEM+F12). Cells were incubated at 37° C. overnight and then treated with a DNMDP dose dilution series using an HP D300 digital dispenser. After 72 hours, the viability of cells in each well were measured by Cell Titer Glo (Promega G755B and G756B). Percent viability values were determined using the values from untreated wells and AUC values were calculated using a 4-parameter fit. DNMDP was purchased from Life Chemicals (F1638-0042) and trequinsin was purchased from Sigma-Aldrich (T2057).
(§2) PDE3A CRISPR KO cells (sgRNA #2) were generated according to de Waal et al, 2016 (2), hereby incorporated by reference in its entirety. CRISPR target sites for PDE3B and AIP were identified using the CHOPCHOP CRISPR Design Tool (chopchop.cbu.uib.no). For cloning of sgRNAs, forward and reverse oligos were annealed, phosphorylated and ligated into a BsmBI-digested lentiCRISPRv2 vector. Lentivirus carrying each guide construct was packaged as described above and used to infect target cells. Transduced target cells were selected using 1 μg/ml puromycin and passaged for 7 days before use.

[2] = biological target: T1, PDE3A-SLFN12 complex (Homo sapiens, UniProt Q14432); experiment: PDE3A immunoprecipitation / immunoblot for PDE3A-SLFN12 complex formation in HeLa cells; conditions: for complex formation between PDE3A and FLAG-tagged SLFN12 with AIP knocked out (FIG. 8B) / complex formation between PDE3A and FLAG-tagged SLFN12 (FIG. 8B): HeLa cells, anti-PDE3A pull down, 10 μM compound; for complex formation between PDE3A and FLAG-tagged SLFN12 with AIP knocked out (FIG. 8B): AIP Crispr knockout (KO sg2, KO sg3)
T1 construct: immunoprecipitated endogenous PDE3A; endogenous in cells; host or cells: HeLa cells, parental or AIP CRISPR knockout; PDE3A is endogenous; SLFN12 is ectopically expressed
Description: Because decreased PDE3A protein expression could impact DNMDP-induced PDE3A-SLFN12 complex formation, the effects of AIP knockout on this complex formation were also measured. As there is no good antibody for SLFN12 protein, we ectopically expressed V5-tagged SLFN12 in parental or AIP-knockout HeLa cells, immunoprecipitated endogenous PDE3A, and assessed whether V5-SLFN12 could be detected in the immunoprecipatites. Cells were plated in 10 cm petri dishes and collected at 50-90% confluence. For PDE3A immunoblotting in biomarker positive cells and in AIP KO cells, cells were seeded in 15 cm plates at similar density as in viability assays with a vessel scaling factor of 5000, e.g., 500 cells per well was scaled to 10^6 cells per 10 cm plate or 2.5×10^6 cells per 15 cm plate, and then cultured for 72 hours before collection. Cell pellets were lysed at 4° C. for 20 minutes in modified RIPA buffer (150 mM NaCl, 10% glycerol, 50 mM Tris-Cl pH 8.0, 50 mM MgCl2, 1% NP-40) supplemented with EDTA-free protease inhibitors (Sigma-Aldrich 4693159001) and PhosSTOP phosphatase inhibitors (Sigma-Aldrich 4906837001). Lysates were clarified by centrifugation at 13,000 rpm×10 min at 4° C. and quantified using BCA protein assays (Thermo Fisher Scientific 23225). Clarified lysates were resolved on 4-12% Bis-Tris PAGE gels, transferred to nitrocellulose membranes (Thermo Fisher Scientific IB23001) and immunoblotted with primary antibodies against PDE3A (Bethyl 302-740A, 1:2000), V5 (Life Technologies R96205 at 1:5,000), AIP (Thermo Fisher Scientific MA3-16515 at 1:2000), Vinculin (Sigma-Aldrich V9264 at 1:5,000), GAPDH (Cell Signaling Technology 2118 at 1:2000) and secondary antibodies from LiCOR Biosciences (92632210 and 926068021, each at 1:10,000). Blots were washed and imaged using a LiCOR Odyssey infrared imager, and fluorescent signals quantified using the Image Studio software provided by the LiCOR manufacturer.

[3] = system: IGR37 melanoma cell line; experiment: 72 h Cell Titer Glo viability, IGR37; set-up: unit not given beside the values; conditions: 72 h Cell Titer Glo dose response, AUC on a scale from 0-4
Description: as §1

[4] = system: COLO741 melanoma cell line; experiment: 72 h Cell Titer Glo viability, COLO741; set-up: unit not given beside the values; conditions: 72 h Cell Titer Glo dose response, AUC on a scale from 0-4
Description: as §1

[5] = system: SKMEL3 melanoma cell line; experiment: 72 h Cell Titer Glo viability, SKMEL3; set-up: unit not given beside the values; conditions: 72 h Cell Titer Glo dose response, AUC on a scale from 0-4
Description: as §1

[6] = system: HMCB melanoma cell line; experiment: 72 h Cell Titer Glo viability, HMCB; set-up: unit not given beside the values; conditions: 72 h Cell Titer Glo dose response, AUC on a scale from 0-4
Description: as §1

[7] = system: A2058 melanoma cell line; experiment: 72 h Cell Titer Glo viability, A2058; set-up: unit not given beside the values; conditions: 72 h Cell Titer Glo dose response, AUC on a scale from 0-4
Description: as §1
PDE3A CRISPR KO cells (sgRNA #2) were generated according to de Waal et al, 2016 (2), hereby incorporated by reference in its entirety. CRISPR target sites for PDE3B and AIP were identified using the CHOPCHOP CRISPR Design Tool (chopchop.cbu.uib.no). […]

[8] = system: C32 melanoma cell line; experiment: 72 h Cell Titer Glo viability, C32; set-up: AUC: unit not given beside the values
Description: as §1

[9] = system: UACC257 melanoma cell line; experiment: 72 h Cell Titer Glo viability, UACC257; set-up: AUC: unit not given beside the values
Description: as §1

[10] = system: RVH421 melanoma cell line; experiment: 72 h Cell Titer Glo viability, RVH421
Description: as §1

[11] = system: A2058 and SKMEL3 cells with CRISPR KO of SLFN12; experiment: 72 h Cell Titer-Glo survival of cells with CRISPR KO of SLFN12; conditions: CRISPR KO of SLFN12 (sg4)
Description: A2058 and SKMEL3 are representative melanoma cell lines. Survival is measured with a 72 h Cell Titer-Glo assay and CRISPR was performed with sg4, SLFN12 CRISPR guide RNA #4.
as §2
FIG. 3A illustrates the survival of cells in the presence of DNMDP that have had CRISPR knockout of SLFN12. FIG. 3B illustrates the survival of cells in the presence of DNMDP that have had CRISPR knockout of PDE3A (with and without ectopic expression of PDE3B). […] The survival in FIGS. 3A and 3B was measured with a 72 h Cell Titer-Glo assay and CRISPR was performed with sg4, SLNF12 CRISPR guide RNA #4.

T1 sequence (Q14432 whole entry): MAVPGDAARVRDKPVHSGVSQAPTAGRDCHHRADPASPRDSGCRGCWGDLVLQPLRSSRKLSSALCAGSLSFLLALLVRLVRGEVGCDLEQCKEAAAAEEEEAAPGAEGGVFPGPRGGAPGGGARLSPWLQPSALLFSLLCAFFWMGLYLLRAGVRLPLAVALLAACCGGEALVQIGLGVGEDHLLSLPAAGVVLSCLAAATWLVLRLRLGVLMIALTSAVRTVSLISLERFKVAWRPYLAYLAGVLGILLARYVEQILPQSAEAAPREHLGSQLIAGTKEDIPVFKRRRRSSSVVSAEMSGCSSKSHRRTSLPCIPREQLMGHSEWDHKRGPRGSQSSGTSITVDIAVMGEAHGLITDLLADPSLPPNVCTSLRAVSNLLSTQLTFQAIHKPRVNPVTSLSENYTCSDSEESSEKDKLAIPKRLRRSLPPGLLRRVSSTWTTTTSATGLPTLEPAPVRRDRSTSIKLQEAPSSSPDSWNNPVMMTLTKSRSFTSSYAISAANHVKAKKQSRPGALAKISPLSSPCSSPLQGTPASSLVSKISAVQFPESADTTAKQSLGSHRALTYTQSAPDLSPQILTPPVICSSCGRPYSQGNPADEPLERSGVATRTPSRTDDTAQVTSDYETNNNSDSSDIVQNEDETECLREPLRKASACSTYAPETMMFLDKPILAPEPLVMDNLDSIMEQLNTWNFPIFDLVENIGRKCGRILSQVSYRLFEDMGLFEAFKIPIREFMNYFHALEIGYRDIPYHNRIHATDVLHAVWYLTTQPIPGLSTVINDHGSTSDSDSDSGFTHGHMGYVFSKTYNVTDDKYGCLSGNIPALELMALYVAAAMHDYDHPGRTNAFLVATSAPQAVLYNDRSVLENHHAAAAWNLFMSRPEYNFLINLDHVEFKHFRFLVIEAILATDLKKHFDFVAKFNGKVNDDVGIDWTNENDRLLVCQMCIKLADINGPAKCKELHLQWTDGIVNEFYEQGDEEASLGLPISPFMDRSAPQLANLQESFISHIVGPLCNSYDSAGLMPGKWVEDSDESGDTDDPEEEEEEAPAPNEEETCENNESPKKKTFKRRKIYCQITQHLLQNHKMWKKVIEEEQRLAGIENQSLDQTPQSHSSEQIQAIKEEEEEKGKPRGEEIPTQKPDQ
T1 sequence (Q8IYM2 whole entry partner): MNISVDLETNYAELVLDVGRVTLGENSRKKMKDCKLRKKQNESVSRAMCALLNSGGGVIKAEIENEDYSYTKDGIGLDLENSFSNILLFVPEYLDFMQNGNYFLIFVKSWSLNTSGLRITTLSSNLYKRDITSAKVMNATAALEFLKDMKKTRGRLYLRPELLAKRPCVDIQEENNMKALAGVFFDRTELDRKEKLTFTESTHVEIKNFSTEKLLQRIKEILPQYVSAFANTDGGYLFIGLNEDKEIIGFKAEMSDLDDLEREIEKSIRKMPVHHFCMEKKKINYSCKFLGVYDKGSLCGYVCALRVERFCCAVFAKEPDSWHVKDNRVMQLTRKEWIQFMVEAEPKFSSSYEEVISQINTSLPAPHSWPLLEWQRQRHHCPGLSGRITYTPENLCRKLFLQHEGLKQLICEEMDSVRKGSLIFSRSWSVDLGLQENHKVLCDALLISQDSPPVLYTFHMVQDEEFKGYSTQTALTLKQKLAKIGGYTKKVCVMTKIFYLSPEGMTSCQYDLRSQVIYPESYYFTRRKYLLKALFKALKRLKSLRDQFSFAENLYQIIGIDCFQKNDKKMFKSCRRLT

| SMILES | cancer cell killing in cells lacking AIP (FIG. 8A) ([1]; HeLa cells having an AIP knock out (KOsg2, KOsg3)) | cervical cancer cell viability (FIG. 8A) ([1]; HeLa cells, increasing concentrations) | complex formation between PDE3A and FLAG-tagged SLFN12 with AIP knocked out (FIG. 8B) [2] | complex formation between PDE3A and FLAG-tagged SLFN12 (FIG. 8B) [2] | AUC ([1]; HeLa (cervical), 72 h Cell Titer Glo dose response, AUC on a scale from 0-4) | cell response after AIP knockout (FIG. 6A) ([1]; HeLa cells, AIP CRISPR knockout with independent gRNAs, 72-hour Cell Titer-Glo) | sensitivity in PDE3A knockout cells with ectopic PDE3B expression (FIG. 3B) ([1]; PDE3A knockout HeLa cells, ectopic expression of PDE3B, 72 h Cell Titer-Glo) | AUC [3] | AUC [4] | AUC [5] | AUC [6] | AUC [7] | AUC ([8]; C32 (melanoma), 72 h Cell Titer Glo dose response, AUC on a scale from 0-4) | sensitivity of cell line (dose response, FIG. 2A) ([8]; C32 cells, 72 h Cell Titer-Glo) | AUC ([9]; UACC257 (melanoma, lacks AIP expression), 72 h Cell Titer Glo dose response, AUC on a scale from 0-4) | sensitivity of cell line (dose response, FIG. 2A) ([9]; UACC257 cells, 72 h Cell Titer-Glo) | AUC ([10]; RVH421 (melanoma, PDE3B/SLFN12 biomarker-positive), 72 h Cell Titer Glo dose response, AUC on a scale from 0-4) | sensitivity of cell line (dose response, FIG. 2A) ([10]; RVH421 cells, 72 h Cell Titer-Glo) | PDE3A-SLFN12 complex formation after AIP knockout (FIG. 7) ([2]; AIP-knockout HeLa cells, V5-tagged SLFN12, PDE3A immunoprecipitates, 10 μM) | sensitivity after SLFN12 knockout (FIG. 3A) [11] |
| --- | --- | --- | --- | --- | --- | --- | --- | --- | --- | --- | --- | --- | --- | --- | --- | --- | --- | --- | --- | --- |
| C[C@@H]1OC(=O)NN=C1c1ccc(-c2ccc(F)cc2)c(C(F)(F)F)c1 [Compound X, (6S)-5-[4′-fluoro-2-(trifluoromethyl)biphenyl-4-yl]-6-methyl-3,6-dihydro-2H-1,3,4-oxadiazin-2-one] | no cancer cell killing was observed | reduced at increasing concentrations | not observed | induced |  |  |  |  |  |  |  |  |  |  |  |  |  |  |  |  |
| CCN(CC)c1ccc(C2=NNC(=O)CC2C)cc1[N+](=O)[O-] (stereo not shown) [DNMDP, 6-(4-(diethylamino)-3-nitrophenyl)-5-methyl-4,5-dihydropyridazin-3(2H)-one] |  |  | not observed | induced | 0.36 | AIP knockout eliminates HeLa cell response | support DNMDP sensitivity | 1.17 | 1.19 | 1.74 | 1.85 | 2.11 | 3.13 | only partially sensitive | 4.00 | completely insensitive | 3.02 | only partially sensitive | completely abolished | SLFN12 knockout abrogates all measured sensitivity |

From patent US12325880B2, “Identification of PDE3 modulator responsive cancers” (THE BROAD INSTITUTE, INC., priority 2018, dated 2025)
